The values below come from PubChem BioAssay (NCI).

SMILES strings stand for the structures.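 Tested at 5 concentrations; 48 h exposure; 96-well plates; endpoints linearly interpolated, else capped at highest concentration. Abbreviation: GI50, concentration required for 50% inhibition of growth. At the TGI there is no net growth.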

Experiment in all cases: NCI-60 cell line screen, 48 h
Assay [1] deals with A498 renal.
The test system of assay [2] is EKVX NSCLC.
Assay [3] has as its system MDA-MB-231 breast.
Assay [4] has as its system NCI-H460 lung.
The subject of assay [5] is NCI-H522 lung.
Assay [6] relates to SN12C renal.
Assay [7] deals with SNB-19 CNS.
Assay [8] relates to SNB-75 CNS.
Assay [9] deals with U251 CNS.

Take `COC(=O)c1cc2c(cc1Cl)SC(N(N(C)C)S(=O)(=O)c1ccc(Cl)cc1)=NS2(=O)=O`: the GI50 was 15.1 µM in [1]; 17 µM in assay [2]; 17.1 µM in assay [3]; 18.7 µM in [4]; 12.4 µM in assay [5]; 19.2 µM in assay [6]. Also, the GI50 in assay [7] is 17.3 µM; in [8], 23.7 µM; in [9], 17 µM. Further, the TGI turned out to be 30.1 µM in [1]; 33 µM in assay [2]; 44 µM in [3]; 37.4 µM in assay [4]; 30.2 µM in assay [5]; 47.7 µM in assay [6]. Further, the values for the TGI in assay [7], in assay [8] and in assay [9] were 50.2 µM, 69.9 µM and 44.8 µM, respectively.

For the compound `C=CCC(C)(C(=O)NCCC)C(=O)c1ccccc1O` (stereo not drawn), the TGI in [1], in assay [4], in assay [5], in assay [6], in assay [7] and in assay [8] was greater than 100 µM throughout. The TGI in assay [9] was greater than 100 µM.

For `O=C1c2ccccc2C2(O)Oc3cccc(O)c3C12O` (stereo not drawn), the TGI in [1], in assay [2], in [4], in assay [5], in assay [6] and in assay [7] was greater than 100 µM in each case. Further, the TGI in assay [8] and in assay [9] was greater than 100 µM throughout.

`Cc1nn(C)c(=O)c2nn(-c3ccccc3)c(C)c12`: the TGI in assay [1], in [2], in assay [4], in [5], in [6] and in [7] was greater than 100 µM each time. Besides, the TGI in [8] and in assay [9] was greater than 100 µM throughout.

Consider `CCOC(=O)C1(C(=O)OCC)CC=C(C)CC12C(=O)Nc1ccccc12` (stereo not drawn), for which the TGI in assay [1], in assay [2], in assay [4], in [5], in [6] and in [7] was greater than 100 µM in each case. Moreover, the TGI in assay [8] and in assay [9] was greater than 100 µM throughout.

Regarding `O=C1CCC(=O)C12CCc1cccc(O)c12`, the TGI in assay [2], in assay [4], in assay [6], in assay [8] and in assay [9] was greater than 100 µM throughout.

In the case of `Cn1cnc([N+](=O)[O-])c1Sc1nnc(C(F)(F)F)n1C`, the TGI in assay [1] is greater than 100 µM; in assay [2], greater than 100 µM; in [4], greater than 100 µM; in assay [5] it was 23.9 µM; in assay [6] it was greater than 100 µM; in [7], greater than 100 µM. In addition, the figures for the TGI in [8] and in assay [9] were greater than 100 µM and 37.2 µM, respectively.

As to `COc1cc(C(CC(OC)OC)=C(C#N)C#N)cc(OC)c1OC`, the TGI in assay [1] is 40 µM; in [2], greater than 100 µM; in [4] it was 23.4 µM; in [5], 32.9 µM; in [6], greater than 100 µM; in assay [7], greater than 100 µM. Besides, the values for the TGI in [8] and in assay [9] were 82.2 µM and 91.4 µM, respectively.

As for `COc1ccc(S(=O)(=O)N/N=C(\C)CN2C(=O)c3ccccc3C2=O)cc1`, the TGI in assay [1], in [2], in assay [4], in assay [5], in assay [6] and in assay [7] was greater than 100 µM throughout. Moreover, the TGI in assay [8] and in [9] was greater than 100 µM in each case.

Consider `CC1=N/C(=C\c2cccc3ccccc23)C(=O)O1`, for which the TGI in [1], in assay [2], in assay [4], in assay [5], in assay [6] and in assay [7] was greater than 100 µM in each case. Besides, the TGI in assay [9] was greater than 100 µM.

With `CCCCCCCCCC(=O)N[C@H]1CCc2cc(OC)c(OC)c(OC)c2-c2ccc(SC)c(=O)cc21`, the TGI in assay [1] came out at 0.0596 µM; in assay [2], 9.55 µM; in assay [4], 0.306 µM; in [6] it was 19.6 µM; in [7], 75 µM; in [9], 0.0618 µM.

Take `COc1ccc(Nc2c[nH]c(=O)[nH]c2=O)cc1`: the TGI in assay [1], in assay [2], in assay [3], in [5], in assay [6] and in [7] was greater than 100 µM throughout. Moreover, the TGI in assay [8] and in assay [9] was greater than 100 µM throughout.

With `COC1(OC)c2ccccc2C2(O)c3ccccc3C(=O)C12` (stereo not drawn), the TGI was greater than 100 µM in assay [2]; greater than 100 µM in assay [4]; 47 µM in [5]; greater than 100 µM in assay [6]; greater than 100 µM in assay [7]; greater than 100 µM in [8]. This compound also returned a TGI in assay [9] greater than 100 µM.

As to `O=C1NC(=S)NC(=O)C1=Cc1ccc2ccccc2n1`, the TGI in assay [1], in assay [2], in assay [4], in assay [5], in assay [6] and in assay [7] was greater than 100 µM throughout. Besides, the TGI in [8] and in [9] was greater than 100 µM throughout.

As to `COc1ccc(N2C(=O)C3c4[nH]c5ccccc5c4C4CCC(C(C)(C)C)CC4C3C2=O)cc1OC` (stereo not drawn), the TGI in assay [1] is 41.4 µM; in [2], greater than 100 µM; in [5] it was 33.4 µM; in assay [6], 48.5 µM; in assay [7], 71.3 µM; in assay [8] it was 32.5 µM. The same compound displayed a TGI in assay [9] of 73 µM.

For the compound `CC1=N/C(=C\c2ccc([N+](=O)[O-])cc2)C(=O)O1`, the TGI in assay [1], in assay [2], in assay [4], in assay [5], in assay [6] and in assay [7] was greater than 100 µM each time. In addition, the TGI in assay [9] is greater than 100 µM.
